From PubChem BioAssay (NCI) come the findings set out here.

The structures appear in SMILES notation.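 Cells were grown in 96-well plates and exposed to each compound for 48 hours at five concentrations; endpoints were interpolated linearly between bracketing concentrations, or set to the highest concentration if not reached. TGI is the concentration that stops growth completely.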 Where a SMILES comes first, the peptide text is derived from it. The star is where a group is joined. Boc = CC(C)(C)OC(=O)*

One experiment has as its system M14 melanoma. Description: NCI-60 cell line screen, 48 h.
With `COc1ccc2c(c1)C(=O)C1CC(=O)CCC21` (centres undefined), the TGI was > 100 µM.

With `Cc1n[nH]c(=O)n1N1C(=O)CCCC1=O`, the TGI is > 100 µM.

Turning to `Cc1ccccc1-n1c(=O)c2ncn(C3CCCO3)c2n(-c2ccccc2C)c1=S` (centres undefined), the TGI is > 100 µM.

For `CSc1nc2c(c(=O)[nH]1)N=C(c1ccc([N+](=O)[O-])cc1)CC(c1ccccc1)N2` (centres undefined), the TGI is > 100 µM.

In the case of `CCOC(=O)C1=NOC2(C=C(Br)C(=O)C(Br)=C2)C1`, the TGI was determined as 3.29 µM.

The molecule `O=c1[nH]cc(-c2c[nH]c3ccccc23)nc1-c1c[nH]c2ccccc12` displayed a TGI of 28.1 µM.

`CC(C)(C)OC(=O)NC(Cc1ccc(O)cc1)C(=O)N1CCCC1C(=O)O` (stereo not drawn) (Boc-Tyr-Pro-OH; configuration not given here): the TGI was > 100 µM.

Regarding `Nc1n[n+](CC(=O)c2ccccc2)c2sc(-c3ccccc3)nn12`, the TGI was > 100 µM.

With `O=C(O)c1ccc(C2COc3ccc(Cl)cc3C2)cc1` (centres undefined), the TGI is > 100 µM.

Regarding `CC(=O)NC(CCCNC(=O)N(CCCl)N=O)C(=O)NCc1ccccc1` (centres undefined), the TGI was > 100 µM.

For `COC(=O)[C@H](CCSC)NC(=O)N[C@H](C)c1ccccc1`, the TGI was > 100 µM.

As for `CCN1C(=O)c2cc(OC)c(OC)cc2C(=O)C12OC(=O)c1cc3c(cc12)OCO3` (centres undefined), the TGI was > 100 µM.

In the case of `C=CC[C@@H](N)C(=O)N(C)[C@@H](C)[C@@H](O)c1ccccc1`, the TGI is > 100 µM.

For the molecule `CC(=O)CN(Cc1cc(C)c2c(c1)c1ccccc1n2Cc1ccccc1)S(=O)(=O)c1ccc(C)cc1`, the TGI is > 100 µM.

In the case of `O=C1NC(=O)C2C(=O)NC(=O)C1C2c1c(Cl)cccc1Cl` (centres undefined), the TGI was > 100 µM.

Molecule `CCC(CCCN)Nc1cc(OC)cc2c(C)ccnc12` (centres undefined) yielded a TGI of 29.3 µM.

Another experiment relates to HCC-2998 colon. As to the kind of experiment: NCI-60 cell line screen, 48 h.
Take `COc1ccc2c(c1)C(=O)C1CC(=O)CCC21` (centres undefined): the TGI was > 100 µM.

Turning to `Cc1n[nH]c(=O)n1N1C(=O)CCCC1=O`, the TGI is > 100 µM.

Take `Cc1ccccc1-n1c(=O)c2ncn(C3CCCO3)c2n(-c2ccccc2C)c1=S` (centres undefined): the TGI is > 100 µM.

As to `NC(N)=NCC[C@H](NC(=O)OCCCCCn1ccc(=O)[nH]c1=O)C(=O)O`, the TGI was > 100 µM.

Take `CSc1nc2c(c(=O)[nH]1)N=C(c1ccc([N+](=O)[O-])cc1)CC(c1ccccc1)N2` (centres undefined): the TGI stood at 57.7 µM.

With `CN(C)c1ccc(NN=C2SC(=Nc3ccccc3)C(=Nc3ccccc3)S2)cc1`, the TGI is > 100 µM.

On to `CCOC(=O)C1=NOC2(C=C(Br)C(=O)C(Br)=C2)C1`, for which the TGI was found to be 3.22 µM.

Turning to `O=c1[nH]cc(-c2c[nH]c3ccccc23)nc1-c1c[nH]c2ccccc12`, the TGI amounted to 21.6 µM.

As to `CC(C)(C)OC(=O)NC(Cc1ccc(O)cc1)C(=O)N1CCCC1C(=O)O` (stereo not drawn) (Boc-Tyr-Pro-OH; configuration not given here), the TGI is > 100 µM.

Take `O=C(O)c1ccc(C2COc3ccc(Cl)cc3C2)cc1` (centres undefined): the TGI is > 100 µM.

As to `CC(=O)NC(CCCNC(=O)N(CCCl)N=O)C(=O)NCc1ccccc1` (centres undefined), the TGI was > 100 µM.

In the case of `COC(=O)[C@H](CCSC)NC(=O)N[C@H](C)c1ccccc1`, the TGI was > 100 µM.

On to `CCN1C(=O)c2cc(OC)c(OC)cc2C(=O)C12OC(=O)c1cc3c(cc12)OCO3` (centres undefined), for which the TGI was > 100 µM.

For the molecule `CC(=O)CN(Cc1cc(C)c2c(c1)c1ccccc1n2Cc1ccccc1)S(=O)(=O)c1ccc(C)cc1`, the TGI was > 100 µM.

As to `O=C1NC(=O)C2C(=O)NC(=O)C1C2c1c(Cl)cccc1Cl` (centres undefined), the TGI was > 100 µM.

`CCC(CCCN)Nc1cc(OC)cc2c(C)ccnc12` (centres undefined): the TGI turned out to be 44.9 µM.

The next experiment concerns OVCAR-5 ovarian. As to the kind of experiment: NCI-60 cell line screen, 48 h.
`COc1ccc2c(c1)C(=O)C1CC(=O)CCC21` (centres undefined): the TGI was > 100 µM.

In the case of `Cc1n[nH]c(=O)n1N1C(=O)CCCC1=O`, the TGI is > 100 µM.

`Cc1ccccc1-n1c(=O)c2ncn(C3CCCO3)c2n(-c2ccccc2C)c1=S` (centres undefined): the TGI is > 100 µM.

As for `NC(N)=NCC[C@H](NC(=O)OCCCCCn1ccc(=O)[nH]c1=O)C(=O)O`, the TGI was > 100 µM.

In the case of `CSc1nc2c(c(=O)[nH]1)N=C(c1ccc([N+](=O)[O-])cc1)CC(c1ccccc1)N2` (centres undefined), the TGI is > 100 µM.

On to `CN(C)c1ccc(NN=C2SC(=Nc3ccccc3)C(=Nc3ccccc3)S2)cc1`, for which the TGI is > 100 µM.

The molecule `CCOC(=O)C1=NOC2(C=C(Br)C(=O)C(Br)=C2)C1` had a TGI of 12.6 µM.

As for `O=c1[nH]cc(-c2c[nH]c3ccccc23)nc1-c1c[nH]c2ccccc12`, the TGI came out at 27.6 µM.

As to `CC(C)(C)OC(=O)NC(Cc1ccc(O)cc1)C(=O)N1CCCC1C(=O)O` (stereo not drawn) (Boc-Tyr-Pro-OH; configuration not given here), the TGI was > 100 µM.

Consider `Nc1n[n+](CC(=O)c2ccccc2)c2sc(-c3ccccc3)nn12`, for which the TGI is > 100 µM.

Regarding `O=C(O)c1ccc(C2COc3ccc(Cl)cc3C2)cc1` (centres undefined), the TGI is > 100 µM.

For `COC(=O)[C@H](CCSC)NC(=O)N[C@H](C)c1ccccc1`, the TGI is > 100 µM.

For `CCN1C(=O)c2cc(OC)c(OC)cc2C(=O)C12OC(=O)c1cc3c(cc12)OCO3` (centres undefined), the TGI is > 100 µM.

Consider `O=C1NC(=O)C2C(=O)NC(=O)C1C2c1c(Cl)cccc1Cl` (centres undefined), for which the TGI is > 100 µM.

In turn, `CCC(CCCN)Nc1cc(OC)cc2c(C)ccnc12` (centres undefined) registered a TGI of 32.5 µM.

The test system of another experiment is SR leukemia. As to the kind of experiment: NCI-60 cell line screen, 48 h.
`COc1ccc2c(c1)C(=O)C1CC(=O)CCC21` (centres undefined): the TGI is > 100 µM.

As for `CSc1nc2c(c(=O)[nH]1)N=C(c1ccc([N+](=O)[O-])cc1)CC(c1ccccc1)N2` (centres undefined), the TGI is > 100 µM.

As for `CC(C)(C)OC(=O)NC(Cc1ccc(O)cc1)C(=O)N1CCCC1C(=O)O` (stereo not drawn) (Boc-Tyr-Pro-OH; configuration not given here), the TGI was > 100 µM.

Take `O=C(O)c1ccc(C2COc3ccc(Cl)cc3C2)cc1` (centres undefined): the TGI was > 100 µM.

On to `CC(=O)NC(CCCNC(=O)N(CCCl)N=O)C(=O)NCc1ccccc1` (centres undefined), for which the TGI is > 100 µM.

On to `COC(=O)[C@H](CCSC)NC(=O)N[C@H](C)c1ccccc1`, for which the TGI is > 100 µM.

As for `CCN1C(=O)c2cc(OC)c(OC)cc2C(=O)C12OC(=O)c1cc3c(cc12)OCO3` (centres undefined), the TGI was > 100 µM.

Regarding `CC(=O)CN(Cc1cc(C)c2c(c1)c1ccccc1n2Cc1ccccc1)S(=O)(=O)c1ccc(C)cc1`, the TGI is > 100 µM.

For `O=C1NC(=O)C2C(=O)NC(=O)C1C2c1c(Cl)cccc1Cl` (centres undefined), the TGI is > 100 µM.

As to `CCC(CCCN)Nc1cc(OC)cc2c(C)ccnc12` (centres undefined), the TGI was 31.6 µM.

In a further experiment the test system is CCRF-CEM leukemia. As to the kind of experiment: NCI-60 cell line screen, 48 h.
`COc1ccc2c(c1)C(=O)C1CC(=O)CCC21` (centres undefined): the TGI is > 100 µM.

As for `Cc1n[nH]c(=O)n1N1C(=O)CCCC1=O`, the TGI is > 100 µM.

In the case of `Cc1ccccc1-n1c(=O)c2ncn(C3CCCO3)c2n(-c2ccccc2C)c1=S` (centres undefined), the TGI was > 100 µM.

Regarding `NC(N)=NCC[C@H](NC(=O)OCCCCCn1ccc(=O)[nH]c1=O)C(=O)O`, the TGI was > 100 µM.

Take `CSc1nc2c(c(=O)[nH]1)N=C(c1ccc([N+](=O)[O-])cc1)CC(c1ccccc1)N2` (centres undefined): the TGI was > 100 µM.

As to `CN(C)c1ccc(NN=C2SC(=Nc3ccccc3)C(=Nc3ccccc3)S2)cc1`, the TGI was > 100 µM.

As to `CC(C)(C)OC(=O)NC(Cc1ccc(O)cc1)C(=O)N1CCCC1C(=O)O` (stereo not drawn) (Boc-Tyr-Pro-OH; configuration not given here), the TGI is > 100 µM.

On to `Nc1n[n+](CC(=O)c2ccccc2)c2sc(-c3ccccc3)nn12`, for which the TGI was > 100 µM.

On to `O=C(O)c1ccc(C2COc3ccc(Cl)cc3C2)cc1` (centres undefined), for which the TGI is > 100 µM.

Turning to `CC(=O)NC(CCCNC(=O)N(CCCl)N=O)C(=O)NCc1ccccc1` (centres undefined), the TGI was > 100 µM.

As for `COC(=O)[C@H](CCSC)NC(=O)N[C@H](C)c1ccccc1`, the TGI was > 100 µM.

In the case of `CCN1C(=O)c2cc(OC)c(OC)cc2C(=O)C12OC(=O)c1cc3c(cc12)OCO3` (centres undefined), the TGI was > 100 µM.
